Molecular target: bacterial strain LF82 binding to the glycoprotein BSA-(Mannose)3
Test: Bacterial Binding Assay (BBA)
Assay type: cell-based, Escherichia coli
Conditions: LF82/Luciferase strain binding to BSA-(Man)3 coated plates, luminescence; read-out: Bacterial Binding Assay IC50
Description: The purpose of the Bacterial Binding Assay (BBA) is to determine the inhibition activity of
selective FimH antagonists on the bacterial strain LF82 binding to the glycoprotein BSA-(Mannose)3.
Below is a list of the Materials used to run the BBA are described below. • 1. LB broth: Supplier: Gibco, #10855 • 2. D-PBS: Supplier: Wisent, #311-425-CL • 3. LB agar plates • 4. 96-well black plate (high binding): Supplier: Costar, #3925 • 5. TopSeal™-A adhesive sealing films; Supplier PerkinElmer, #6005185 • 6. Carbonate-bicarbonate buffer pH 9.6 tablets, Supplier: Medicago, #09-8922-24 • 7. Water, Supplier: Gibco, #15230-162 • 8. Bovine serum albumin (BSA): Supplier: Sigma, #A-7888 • 9. (Man)3-BSA (α1-3, α1-6 Mannotriose-BSA, 1 mg), V-Labs, #NGP1336, lot #HGDX37-169-1 • 10. Tween 20: Supplier: Sigma, #P9416 • 11. Bright-Glo Luciferase Assay System: Supplier: Promega, #E2610 • 12. LF82/Luciferase strain: Invasive ability of an Escherichia coli strain isolated from the ileal mucosa of a patient with Crohn ? disease. Boudeau J, Glasser A L, Masseret E, Joly B, Darfeuille-Michaud A, Infect Immun. 1999, 67(9), 4499-509
Solutions and buffers used to run the BBA are described below. • 1. 0.04M carbonate-bicarbonate buffer (coating buffer) • 2. 40 μg/mL BSA-(Man)3: Dissolve 1 mg of (Man)3-BSA in 25 mL of water. • 3. 4000 μg/mL BSA • 4. 40 μg/mL BSA • 5. 1 μg/mL BSA-(Man)3: 150 μL of 40 μg/mL BSA-(Man)3+5.85 mL of 40 μg/mL BSA • 6. 0.5 μg/mL BSA-(Man)3 in 0.02M carbonate-bicarbonate buffer. • 7. 20 μg/mL BSA in 0.02M carbonate-bicarbonate buffer • 8. Blocking buffer (2% BSA/DPBS): 1 g of BSA in 50 mL D-PBS • 9. 2× binding buffer (0.2% BSA/D-PBS): 5 mL of blocking buffer+45 mL D-PBS. • 10. Washing buffer (D-PBS/0.01% Tween 20): 10 μL of Tween 20 in 100 mL D-PBS. • 11. 1× Bright-Glo Luciferase substrate: Dilute 1:1 the Bright-Glo Luciferase Assay System with D-PBS The experimental protocol to run the BBA is described below.
Overnight culture of LF82/Luciferase strain: Into two Falcon 50 mL tubes, add 20 mL of LB+20 μL of 50 mg/mL Kanamycin and inoculate with a loop from glycerol stock of the LF82/Luciferase strain. Incubate overnight at 37° C. with no shaking.
Glycoprotein coating of 96-well plates: Add 100 μL/well of 0.5-2 μg/mL BSA-(Man)3. 20 μg/mL BSA is used as the control background. Seal plate using an adhesive sealing film and incubate overnight at room temperature. Wash the 96-well plate three times with 150 μL/well of D-PBS, add 170 μL/well of blocking solution and incubate 45 min (minimum) at room temperature.
Preparation of bacterial suspension: Mix the two cultures tubes (40 mL) and perform a 1:10 dilution in LB (900 μl LB+100 μl culture. Measure optical density (OD) of the bacterial cultures. OD1 ˜5×10^8 cells/mL. Centrifuge LF82 culture for 20 min at 3500 rpm at room temperature. Re-suspend bacterial pellet in D-PBS and centrifuge again for 20 min at 3500 rpm. Re-suspend bacterial pellet in D-PBS to obtain a bacterial concentration of 2×10^9 bacteria/mL. Dilute 1/10 in D-PBS to obtain a final bacterial concentration of 2×10^8 bacteria/mL (=107 bacteria/50 μL). Perform 1/10 serial dilutions in LB of each bacterial suspension, plate 10 μL of dilutions on LB agar plates (final dilutions of 10^−7) and incubate overnight at 37° C. and count CFUs to determine the actual bacteria density in the assay.
Bacterial binding assay: Add 147 μL 2× binding buffer to compound plate (containing 3 μL of compound). After blocking step is performed (at least 45 min), wash plates three times with 200 μL/well of D-PBS. With a 100 μL multichannel manual pipettor, add 50 µL/well of compound diluted in 2× binding buffer. With a 100 μL multichannel manual pipettor, add 50 μL/well of bacterial suspension. Agitate at slow speed for 1 min and incubate 40-75 min at room temperature. Wash 5 times with 150 μL/well of washing buffer and then once with D-PBS. Add 100 μL/well of 1× Bright-Glo Luciferase substrate. […]

SMILES | IC50
OC[C@H]1O[C@H](C#Cc2ccc3c(c2)C2(CC(O)C(O)CO2)c2cc(C#C[C@H]4O[C@H](CO)[C@@H](O)[C@H](O)[C@@H]4O)ccc2-3)[C@@H](O)[C@@H](O)[C@@H]1O (stereo partly drawn) [Compound 197] | 0.83 nM

Same assay, conditions: read-out: Bacterial Binding Assay IC50, LF82/Luciferase strain binding to BSA-(Man)3 coated plates, luminescence

SMILES | IC50
Cc1cc(C#C[C@H]2O[C@H](CO)[C@@H](O)[C@H](O)[C@@H]2O)c(C)cc1C#C[C@H]1O[C@H](CO)[C@@H](O)[C@H](O)[C@@H]1O [Compound 97, (2R,3S,4R,5S,6R)-2-[2-[2,5-dimethy1-4-[2-[(2R,3S,4R,5S,6R)-3,4,5-trihydroxy-6-(hydroxymethyl)tetrahydropyran-2-yl]ethynyl]phenyl]ethynyl]-6-(hydroxymethyl)tetrahydropyran-3,4,5-triol] | 24 nM
Cc1cc(-c2ccc(-c3ccc([C@H]4O[C@H](CO)[C@@H](O)[C@H](O)[C@@H]4O)c(C)c3)c(C)n2)ccc1[C@H]1O[C@H](CO)[C@@H](O)[C@H](O)[C@@H]1O [Compound 155, (2R,3S,4R,5S,6R)-2-(hydroxymethyl)-6-[2-methyl-4-[2-methyl-6-[3-methyl-4-[(2R,3S,4R,5S,6R)-3,4,5-trihydroxy-6-(hydroxymethyl)tetrahydropyran-2-yl]phenyl]-3-pyridyl]phenyl]tetrahydropyran-3,4,5-triol] | 22 nM
O=C(CCn1cccn1)c1c(C#C[C@H]2O[C@H](CO)[C@@H](O)[C@H](O)[C@@H]2O)ccc2c1C1(CCNCC1)c1cc(C#C[C@H]3O[C@H](CO)[C@@H](O)[C@H](O)[C@@H]3O)ccc1-2 [Compound 240, 1-[2,7-bis[2-[(2R,3S,4R,5S,6R)-3,4,5-trihydroxy-6-(hydroxymethyl)tetrahydropyran-2-yl]ethynyl]spiro[fluorene-9,4piperidine]-1yl]-3-pyrazol-1-yl-propan-1-one] | 0.05 nM
OC[C@H]1O[C@H](C#Cc2ccc3c4ccc(C#C[C@H]5O[C@H](CO)[C@@H](O)[C@H](O)[C@@H]5O)cc4n(C4CCOCC4)c3c2)[C@@H](O)[C@@H](O)[C@@H]1O [Compound 184, (2R,3S,4R,5S,6R)-2-(hydroxymethyl)-6-[2-[9-tetrahydropyran-4-yl-7-[2-[(2R,3S,4R,5S,6R)-3,4,5-trihydroxy-6-(hydroxymethyl)tetrahydropyran-2-yl]ethynyl]carbazol-2-yl]ethynyl]tetrahydropyran-3,4,5-triol] | 0.83 nM
OC[C@H]1O[C@H](C#Cc2cnc(C#C[C@H]3O[C@H](CO)[C@@H](O)[C@H](O)[C@@H]3O)cn2)[C@@H](O)[C@@H](O)[C@@H]1O [Compound 135] | 580 nM
O=C(c1ccno1)c1c(C#C[C@H]2O[C@H](CO)[C@@H](O)[C@H](O)[C@@H]2O)ccc2c1C1(CCNCC1)c1cc(C#C[C@H]3O[C@H](CO)[C@@H](O)[C@H](O)[C@@H]3O)ccc1-2 [Compound 232, [2,7-bis[2-[(2R,3S,4R,5S,6R)-3,4,5-trihydroxy-6-(hydroxymethyl)tetrahydropyran-2-yl]ethynyl]spiro[fluorene-9,4piperidine]-1yl]-isoxazol-5-yl-methanone] | 0.04 nM
OC[C@H]1O[C@H](C#Cc2ccc3c(c2)C(O)(c2ccccc2)c2cc(C#C[C@H]4O[C@H](CO)[C@@H](O)[C@H](O)[C@@H]4O)ccc2-3)[C@@H](O)[C@@H](O)[C@@H]1O (stereo partly drawn) [Compound 167, (2R,3S,4R,5S,6R)-2-(hydroxymethyl)-6-[2-[9-hydroxy-9-phenyl-7-[2-[(2R,3S,4R,5S,6R)-3,4,5-trihydroxy-6-(hydroxymethyl)tetrahydropyran-2-yl]ethynyl]fluoren-2-yl]ethynyl]tetrahydropyran-3,4,5-triol] | 16 nM
CCc1cc(C#C[C@H]2O[C@H](CO)[C@@H](O)[C@H](O)[C@@H]2O)c(CC)cc1C#C[C@H]1O[C@H](CO)[C@@H](O)[C@H](O)[C@@H]1O [Compound 86, (2R,3S,4R,5S,6R)-2-[2-[2,5-diethyl-4-[2-[(2R,3S,4R,5S,6R)-3,4,5-trihydroxy-6-(hydroxymethyl)tetrahydropyran-2-yl]ethynyl]phenyl]ethynyl]-6-(hydroxymethyl)tetrahydropyran-3,4,5-triol] | 22 nM
Cc1cc([C@H]2O[C@H](CO)[C@@H](O)[C@H](O)[C@@H]2O)ccc1-c1ccc([C@H]2O[C@H](CO)[C@@H](O)[C@H](O)[C@@H]2O)cc1 [Compound 63] | 112 nM
OC[C@H]1O[C@H](C#Cc2ccc(C#C[C@H]3O[C@H](CO)[C@@H](O)[C@H](O)[C@@H]3O)c(OC(F)F)c2)[C@@H](O)[C@@H](O)[C@@H]1O [Compound 92, (2R,3S,4R,5S,6R)-2-[2-[3-(difluoromethoxy)-4-[2-[(2R,3S,4R,5S,6R)-3,4,5-trihydroxy-6-(hydroxymethyl)tetrahydropyran-2-yl]ethynyl]phenyl]ethynyl]-6-(hydroxymethyl)tetrahydropyran-3,4,5-triol] | 36 nM
CCC(=O)c1c(C#C[C@H]2O[C@H](CO)[C@@H](O)[C@H](O)[C@@H]2O)ccc2c1C1(CCNCC1)c1cc(C#C[C@H]3O[C@H](CO)[C@@H](O)[C@H](O)[C@@H]3O)ccc1-2 [Compound 223, 1-[2,7-bis[2-[(2R,3S,4R,5S,6R)-3,4,5-trihydroxy-6-(hydroxymethyl)tetrahydropyran-2-yl]ethynyl]spiro[fluorene-9,4piperidine]-1-yl]propan-1-one] | 0.06 nM
O=C1c2cc(C#C[C@H]3O[C@H](CO)[C@@H](O)[C@H](O)[C@@H]3O)ccc2-c2ccc(C#C[C@H]3O[C@H](CO)[C@@H](O)[C@H](O)[C@@H]3O)cc21 [Compound 119, 2,7-bis[2-[(2R,3S,4R,5S,6R)-3,4,5-trihydroxy-6-(hydroxymethyl)tetrahydropyran-2-yl]ethynyl]fluoren-9-one] | 14 nM
CC(C)(c1ccc(C#C[C@H]2O[C@H](CO)[C@@H](O)[C@H](O)[C@@H]2O)cc1)c1ccc(C#C[C@H]2O[C@H](CO)[C@@H](O)[C@H](O)[C@@H]2O)cc1 [Compound 122, (2R,3S,4R,5S,6R)-2-(hydroxymethyl)-6-[2-[4-[1-methyl-1-[4-[2-[(2R,3S,4R,5S,6R)-3,4,5-trihydroxy-6-(hydroxymethyl)tetrahydropyran-2-yl]ethynyl]phenyl]ethyl]phenyl]ethynyl]tetrahydropyran-3,4,5-triol] | 29 nM
CCn1c2cc(C#C[C@H]3O[C@H](CO)[C@@H](O)[C@H](O)[C@@H]3O)ccc2c2ccc(C#C[C@H]3O[C@H](CO)[C@@H](O)[C@H](O)[C@@H]3O)cc21 [Compound 111, (2R,3S,4R,5S,6R)-2-[2-[9-ethyl-7-[2-[(2R,3S,4R,5S,6R)-3,4,5-trihydroxy-6-(hydroxymethyl)tetrahydropyran-2-yl]ethynyl]carbazol-2-yl]ethynyl]-6-(hydroxymethyl)tetrahydropyran-3,4,5-triol] | 2.1 nM

From patent publication US11634447B2 (priority 2012, dated 2023)
